{Chol} = cholesterol
Legend:
[1] = test system: HAEC cells; experiment: Ciliogenesis of HAEC cells under blocking of the Notch signalling pathway; type: cell-based, human; conditions: 10 μM
[2] = test system: HAEC cells; experiment: Ciliogenesis of HAEC cells treated with antagomir during regeneration (tubulin-β4 positive cells); type: cell-based, human; conditions: number of ciliated HAEC cells at stage ALI-D21, n=6, P<0.001
Method: (a,b) the HEAC cells are treated several times with anti-miR-449 antagomirs or a control antagomir (20 nM) during their regeneration (generally 21 days). The percentage of ciliated cells was defined as the ratio of the number of cells positive to +tubulin-β4 relative to the number of nuclei (20 fields/filter and 3 filters/donor). […] The histogram indicates the percentage of ciliated cells per field for each experimental condition (n=6, ***, P<0.001, Student test).
Six independent cultures of HAEC cells were transfected with an oligonucleotide directed against the miR-449s and conjugated with a cholesterol molecule; ciliogenesis was evaluated during the regeneration time.
These tests use an antisense oligonucleotide of miR-449a (antagomir) bound at 3′ by a 2′-O-methyl bond to a molecule of cholesterol and with the sequence: 5′-ascscsagcuaacaauacacugcscsa-Chol-3′ (SEQ. ID. No. 207) (the phosphorothioate bonds are indicated by the subscript J (obtained according to Eurogentec (Seraing, Belgium).
The antagomir (100 μM) was preincubated in fetal calf serum (FCS) for 30 min RT. Then the antagomir-FCS mixture in a differentiation medium (20 μM of antagomir) is added on the apical face of the primary HAEC cells. After 2 h at 37° C., the mixture is withdrawn to restore the air-liquid interface. […]

[3] = test system: miR-449; experiment: Expression of miRNAs in HAEC cells treated with antagomir; type: cell-based, human
[4] = test system: human airway epithelial cells (HAECs); experiment: High-throughput sequencing (HTS) of miRNAs at four stages of differentiation of HAECs; conditions: for Modulation (ratio of the level of intensity of expression in log2 in two stages of differentiation) measured by high-throughput sequencing, D7 − D0 / Modulation (ratio of the level of intensity of expression in log2 in two stages of differentiation) measured by high-throughput sequencing, FC − D7 / Modulation (ratio of the level of intensity of expression in log2 in two stages of differentiation) measured by high-throughput sequencing, WD − D0 / Modulation (ratio of the level of intensity of expression in log2 in two stages of differentiation) measured by high-throughput sequencing, WD − FC / Level of intensity of expression in log2 measured by high-throughput sequencing, D0 / Level of intensity of expression in log2 measured by high-throughput sequencing, D7 / Level of intensity of expression in log2 measured by high-throughput sequencing, FC / Level of intensity of expression in log2 measured by high-throughput sequencing, WD: Table VI; for Modulation (ratio of the level of intensity of expression in log2 in two stages of differentiation), D7 − D0 / Modulation (ratio of the level of intensity of expression in log2 in two stages of differentiation), FC − D7 / Modulation (ratio of the level of intensity of expression in log2 in two stages of differentiation), WD − FC / Abundance (%), D0 / Abundance (%), D7 / Abundance (%), FC / Abundance (%), WD: HTS; for Abundance (%), D0: ALI-D0; for Abundance (%), D7: ALI-D7; for Abundance (%), FC: ALI-FC; for Abundance (%), WD: ALI-WD; for Level of intensity of expression in log2 At the differentiated stage (WD) measured in HTS: healthy human airway epithelial tissue; for Level of intensity of expression in log2 measured by high-throughput sequencing, D0: stage D0; for Level of intensity of expression in log2 measured by high-throughput sequencing, D7: stage D7; for Level of intensity of expression in log2 measured by high-throughput sequencing, FC: stage FC; for Level of intensity of expression in log2 At the differentiated stage (WD) measured in HTS / Level of intensity of expression in log2 measured by high-throughput sequencing, WD: stage WD
Summary of the method: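 Small-RNA libraries from differentiating HAECs (ALI-D0 to ALI-WD) were built by ligation-based SOLiD chemistry, size-selected and sequenced. Strand counts were normalized per million reads, converted to percentage abundance, and filtered on adjusted P-value below 0.05.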

[5] = test system: human airway epithelial cells (HAECs); experiment: Agilent miRNA chips, miRNA expression at four stages of differentiation of HAECs; conditions: for Modulation (ratio of the level of intensity of expression in log2 in two stages of differentiation) measured with the Agilent chips, D7 − D0 / Modulation (ratio of the level of intensity of expression in log2 in two stages of differentiation) measured with the Agilent chips, FC − D7 / Modulation (ratio of the level of intensity of expression in log2 in two stages of differentiation) measured with the Agilent chips, WD − D0 / Modulation (ratio of the level of intensity of expression in log2 in two stages of differentiation) measured with the Agilent chips, WD − FC / Level of intensity of expression in log2 measured with the Agilent chips, D0 / Level of intensity of expression in log2 measured with the Agilent chips, D7 / Level of intensity of expression in log2 measured with the Agilent chips, FC / Level of intensity of expression in log2 measured with the Agilent chips, WD: Table VI; for Modulation (ratio of the level of intensity of expression in log2 at two stages of differentiation), FC − D7 / Modulation (ratio of the level of intensity of expression in log2 at two stages of differentiation), WD − FC: Agilent miRNA chips, Table V; for Level of intensity of expression in log2 measured with the Agilent chips, D0: stage D0; for Level of intensity of expression in log2 measured with the Agilent chips, D7: stage D7; for Level of intensity of expression in log2 measured with the Agilent chips, FC: stage FC; for Level of intensity of expression in log2 measured with the Agilent chips, WD: stage WD
Summary of the method: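 Patient RNA samples, the same ones analysed by high-throughput sequencing, were first labelled, then hybridized onto arrays carrying 866 human and 89 human viral miRNAs (miRBase v.12.0), following the supplied labelling and hybridization protocol.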

[6] = test system: basal cells and pyramidal cells of the airway epithelium; experiment: miRNA expression in sorted basal cells versus pyramidal cells (ciliated + secretory), HTS and Agilent chips; parameters: species or system human; conditions: for Modulation of expression of the miRNAs in pyramidal cells (323(−)) relative to basal cells 323(+): HTS and Agilent chips; for Intensity of the level of expression in log2 in pyramidal cells (323(−)): pyramidal cells (ciliated + secretory)
Summary of the method: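 Epithelium dissociated from nasal polyps is held 30 min in PBS-BSA-EDTA, then labelled 20 min at 4° C for CD151 and tissue factor. After DAPI staining, live single cells are sorted into marker-double-positive and double-negative fractions, and sort purity and identity are verified. Total RNA then undergoes miRNA profiling on arrays or by sequencing.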

| Molecule | Modulation (ratio of the level of intensity of expression in log2 in two stages of differentiation) measured by high-throughput sequencing, D7 − D0 [4] | Modulation (ratio of the level of intensity of expression in log2 in two stages of differentiation) measured by high-throughput sequencing, FC − D7 [4] | Modulation (ratio of the level of intensity of expression in log2 in two stages of differentiation) measured by high-throughput sequencing, WD − D0 [4] | Modulation (ratio of the level of intensity of expression in log2 in two stages of differentiation) measured by high-throughput sequencing, WD − FC [4] | Level of intensity of expression in log2 At the differentiated stage (WD) measured in HTS [4] | Level of intensity of expression in log2 measured by high-throughput sequencing, D0 [4] | Level of intensity of expression in log2 measured by high-throughput sequencing, D7 [4] | Level of intensity of expression in log2 measured by high-throughput sequencing, FC [4] | Level of intensity of expression in log2 measured by high-throughput sequencing, WD [4] | Modulation (ratio of the level of intensity of expression in log2 in two stages of differentiation) measured with the Agilent chips, D7 − D0 [5] | Modulation (ratio of the level of intensity of expression in log2 in two stages of differentiation) measured with the Agilent chips, FC − D7 [5] | Modulation (ratio of the level of intensity of expression in log2 in two stages of differentiation) measured with the Agilent chips, WD − D0 [5] | Modulation (ratio of the level of intensity of expression in log2 in two stages of differentiation) measured with the Agilent chips, WD − FC [5] | Level of intensity of expression in log2 measured with the Agilent chips, D0 [5] | Level of intensity of expression in log2 measured with the Agilent chips, D7 [5] | Level of intensity of expression in log2 measured with the Agilent chips, FC [5] | Level of intensity of expression in log2 measured with the Agilent chips, WD [5] | Modulation of expression of the miRNAs in pyramidal cells (323(−)) relative to basal cells 323(+) [6] | Intensity of the level of expression in log2 in basal cells (323(+)) [6] | Intensity of the level of expression in log2 in pyramidal cells (323(−)) [6] | other results |
| --- | --- | --- | --- | --- | --- | --- | --- | --- | --- | --- | --- | --- | --- | --- | --- | --- | --- | --- | --- | --- | --- |
| C[C@H](NC(=O)Cc1cc(F)cc(F)c1)C(=O)N[C@H](C(=O)OC(C)(C)C)c1ccccc1 [DCT] | – | – | – | – | – | – | – | – | – | – | – | – | – | – | – | – | – | – | – | – | ciliogenesis during regeneration of the HAEC cells [1]: potentiates ciliogenesis significantly |
| anti-miR-449 antagomir: antisense oligonucleotide of miR-449a bound at 3′ to cholesterol, 5′-ascscsagcuaacaauacacugcscsa-Chol-3′ (SEQ. ID. No. 207) (antisense ACCAGCUAACAAUACACUGCCA; linkages s3 o16 s2 (s phosphorothioate, o phosphodiester), 3' {Chol}, sugars by position and methylation of C not given here; further chemistry not fully specified; listed as Homo sapiens) | – | – | – | – | – | – | – | – | – | – | – | – | – | – | – | – | – | – | – | – | mean value of inhibition of ciliogenesis [2]: 2.3±0.3; expression of miR449a ([3]; n=6): suppresses; expression of miR-21 ([3]; n=6): no effect; expression of miR-449b ([3]; n=6): suppresses; expression of miR-449 ([3]; stage ALI-D21): reduction of the same order |
| hsa-miR-449a: human miRNA, SEQ ID No. 46 (UGGCAGUGUAUUGUUAGCUGGU; expressed or natural sequence; listed as Homo sapiens) | 5.21 log2 | 5.21 log2 | 10.63 log2 | 0.21 log2 | 12.24 log2 | 4.48 log2 | 9.69 log2 | 14.90 log2 | 15.11 log2 | 6.53 log2 | 5.70 log2 | 12.08 log2 | −0.15 log2 | 1.47 log2 | 8.00 log2 | 13.70 log2 | 13.54 log2 | 6.07 | 2.81 log2 | 8.88 log2 | Modulation (ratio of the level of intensity of expression in log2 in two stages of differentiation), D7 − D0 [4]: 5.21 log2; Modulation (ratio of the level of intensity of expression in log2 in two stages of differentiation), FC − D7 [4]: 5.21 log2; Modulation (ratio of the level of intensity of expression in log2 in two stages of differentiation), WD − FC [4]: 0.21 log2; Abundance (%), D0 [4]: 0.00%; Abundance (%), D7 [4]: 0.18%; Abundance (%), FC [4]: 6.49%; Abundance (%), WD [4]: 5.70%; Modulation (ratio of the level of intensity of expression in log2 at two stages of differentiation), FC − D7 [5]: 5.70 log2; Modulation (ratio of the level of intensity of expression in log2 at two stages of differentiation), WD − FC [5]: −0.15 log2 |
| hsa-miR-574-3p: human miRNA, SEQ ID No. 48 (CACGCUCAUGCACACACCCACA; expressed or natural sequence; listed as Homo sapiens) | 0.48 log2 | 0.12 log2 | 0.92 log2 | 0.32 log2 | 13.42 log2 | 13.64 log2 | 14.12 log2 | 14.24 log2 | 14.56 log2 | 1.69 log2 | −0.46 log2 | 1.04 log2 | −0.18 log2 | 4.73 log2 | 6.42 log2 | 5.96 log2 | 5.77 log2 | 0.91 | 3.53 log2 | 4.44 log2 | Modulation (ratio of the level of intensity of expression in log2 in two stages of differentiation), D7 − D0 [4]: 0.48 log2; Modulation (ratio of the level of intensity of expression in log2 in two stages of differentiation), FC − D7 [4]: 0.12 log2; Modulation (ratio of the level of intensity of expression in log2 in two stages of differentiation), WD − FC [4]: 0.32 log2; Abundance (%), D0 [4]: 2.80%; Abundance (%), D7 [4]: 3.92%; Abundance (%), FC [4]: 4.12%; Abundance (%), WD [4]: 3.90% |
| hsa-miR-939: human miRNA, SEQ ID No. 50 (UGGGGAGCUGAGGCUCUGGGGGUG; expressed or natural sequence; listed as Homo sapiens) | 0.13 log2 | −0.13 log2 | 0.00 log2 | 0.00 log2 | 5.43 log2 | 0.01 log2 | 0.15 log2 | 0.01 log2 | 0.01 log2 | 1.40 log2 | −0.63 log2 | 0.70 log2 | −0.07 log2 | 6.64 log2 | 8.04 log2 | 7.41 log2 | 7.34 log2 | 1.28 | 4.81 log2 | 6.08 log2 | Modulation (ratio of the level of intensity of expression in log2 at two stages of differentiation), FC − D7 [5]: −0.63 log2; Modulation (ratio of the level of intensity of expression in log2 at two stages of differentiation), WD − FC [5]: −0.07 log2 |
